Assay results taken from patent US8293489B2, “Methods for detection of biological substances” (priority 2007, dated 2012).
Marks after values point to notes of the source that are not given here.

Legend:
Format in all cases: in vivo, human
[1] = system: patients with hyposmia; experiment: Smell function in patients with hyposmia treated with theophylline
Text: Theophylline may also restore smell function through other mechanisms.
Its continual measurement during treatment of these disorders helps in monitoring efficacy of therapy. The detection of NO in nasal mucus provides a non invasive method of diagnosing various diseases related to human physiology and pathology.

[2] = system: nitric oxide (NO); experiment: NO in nasal mucus in patients with hyposmia before and after theophylline treatment; conditions: for NO in nasal mucus: Patients (12)
Text: Table 33 in the examples illustrates NO in nasal mucus in patients treated with theophylline in various doses before and after drug treatment. NO levels in nasal mucus changed following the treatment of patients with smell loss. […] Its continual measurement during treatment of the disorders helps in monitoring efficacy of therapy. The detection of NO in nasal mucus provides a non invasive method of diagnosing various diseases related to human physiology and pathology. The methods of the present invention include treatment of diseases by modulating the concentrations of NO by use of drugs or agents. The method of treatment is preferably by nasal administration.
Table 33 illustrates NO levels in nasal mucus in patients treated with Theophylline in various doses before and after drug treatment. NO levels in nasal mucus changed following the treatment of patients with smell loss. […] Its continual measurement during treatment of these disorders helps in monitoring efficacy of therapy. The detection of NO in nasal mucus provides a non invasive method of diagnosing various diseases related to human physiology and pathology.

[3] = system: TNFα; experiment: TNFα in nasal mucus in patients with hyposmia treated with theophylline
Text: (§1) Tables 36-38 illustrate detection and measurement of TNFα, TNFR 1 and TNFR 2 in nasal mucus of patients with graded loss of smell following treatment with theophylline. […] Further, nasal mucus can be used as an index of disease, disease severity and efficacy of disease treatment. Without limiting the scope of the present invention, this approach is applicable to other substances in nasal mucus in relationship to other disease processes (e.g., cancer, stroke) and to follow-up of their treatment with any drug. […]
These studies were extended to reveal levels of TNFα in nasal mucus of patients with graded loss of smell following treatment with theophylline (Table 36). Smell loss was graded such that loss was greatest in Type I hyposmia, less in Type II and still less in Type III (I>II>III). […] In Type I hyposmia TNFα decreased 40% after treatment with 400 mg theophylline and 57% after treatment 600 mg. In Type II hyposmia TNFα decreased 11% after treatment with 600 mg theophylline.

[4] = system: TRAIL; experiment: TRAIL in nasal mucus in patients with hyposmia before and after treatment with theophylline; conditions: for Nasal mucus TRAIL: patients with hyposmia (5)
Text: Table 16 illustrates detection and measurement of TRAIL in nasal mucus in patients with hyposmia before and after treatment with theophylline at various doses. […] Without limiting the scope of the present invention, other drugs are also considered with in the scope of the present invention for the treatment of various diseases. This is one of the example of the multiple examples of drugs to treat disease in which changes of various substances found in nasal mucus reflect biochemical normalization and functional improvement in the disease process.
Table 16 illustrates detection and measurement of TRAIL in nasal mucus in patients with hyposmia before and after treatment with theophylline at various doses.

[5] = system: TNFR 2; experiment: TNFR 2 in nasal mucus in patients with hyposmia treated with theophylline
Text: Tables 36-38 illustrate detection and measurement of TNFα, TNFR 1 and TNFR 2 in nasal mucus of patients with graded loss of smell following treatment with theophylline. […] Further, nasal mucus can be used as an index of disease, disease severity and efficacy of disease treatment. Without limiting the scope of the present invention, this approach is applicable to other substances in nasal mucus in relationship to other disease processes (e.g., cancer, stroke) and to follow-up of their treatment with any drug.
Table 35 illustrates detection and measurement of TNFα, and soluble TNF receptors 1 and 2, moieties in the nasal mucus. TNFα, and soluble TNF receptors 1 and 2 increase in systems undergoing excessive apoptosis.
With a dose dependent increase of theophylline treatment levels of TNFR 2 in nasal mucus decreased consistent with a dose dependent increase in smell function. Levels of TNFR 2 in patients with Type I and Type II hyposmia decreased almost 50% on 600 mg theophylline consistent with their greatest return of smell function. At this highest level of theophylline levels of TNFR 2 were decreased in relationship to the decrease in smell function—TNFR 2, Type I>Type II>Type III; smell loss, Type I>Type II>Type III.

[6] = system: TNFR 1; experiment: TNFR 1 in nasal mucus in patients with hyposmia treated with theophylline
Text: as §1
With increased smell loss pre treatment TNFR 1 levels were increased in nasal mucus in patients with Type I hyposmia (whose smell loss was increased over that of patients with Type II hyposmia). After theophylline treatment, as a dose of drug increased, TNFR 1 levels decreased in Type I associated with increases in smell function. […] The greater was the smell loss, the higher was the level of TNFR 1.

[7] = patients with hyposmia, theophylline at various doses
[8] = patients with hyposmia, theophylline in graded doses
[9] = patients with hyposmia, stepwise increase in theophylline treatment
[10] = HYPOSMIA TYPE I (7), theophylline 200 mg orally daily
[11] = HYPOSMIA TYPE I (7), theophylline 600 mg orally daily
[12] = HYPOSMIA TYPE II (10), theophylline 200 mg orally daily
[13] = HYPOSMIA TYPE II (10), theophylline 400 mg orally daily
[14] = HYPOSMIA TYPE II (10), theophylline 600 mg orally daily
[15] = HYPOSMIA TYPE III (2), theophylline 600 mg orally daily

SMILES: Cn1c(=O)c2[nH]cnc2n(C)c1=O [theophylline]
- smell function ([1]; patients with hyposmia (loss of smell), general statement): restores smell function in some patients with hyposmia
- smell function ([1]; patients with hyposmia, 600 mg theophylline): restored smell function to or toward normal
- smell function [1, 7]: returned smell function to normal in a dose-dependent manner
- smell function [1, 8]: graded increases in smell function
- NO in nasal mucus ([2]; Theophylline 200 mg): 0.25 ± 0.01 µg/mL
- NO in nasal mucus ([2]; Theophylline 400 mg): 0.40 ± 0.06 µg/mL
- NO in nasal mucus ([2]; Theophylline 600 mg): 0.59 ± 0.16 µg/mL
- change in NO in nasal mucus [2, 8]: increases in nasal mucus NO
- TNF∝ in nasal mucus ([3]; HYPOSMIA TYPE I (8), theophylline 400 mg orally daily): 15.6
- TNF∝ in nasal mucus ([3]; HYPOSMIA TYPE I (8), theophylline 600 mg orally daily): 11.2 ± 4.4
- TNF∝ in nasal mucus ([3]; HYPOSMIA TYPE II (13), theophylline 200 mg orally daily): 14.9 ± 2.5
- TNF∝ in nasal mucus ([3]; HYPOSMIA TYPE II (13), theophylline 400 mg orally daily): 11.5 ± 3.2
- TNF∝ in nasal mucus ([3]; HYPOSMIA TYPE II (13), theophylline 600 mg orally daily): 4.3 ± 0.8^a
- TNF∝ in nasal mucus ([3]; HYPOSMIA TYPE III (3), theophylline 600 mg orally daily): 1.2 ± 0.7^bc
- decrease in TNFα in nasal mucus ([3]; Type I hyposmia, after treatment 600 mg theophylline): 57%
- decrease in TNFα in nasal mucus ([3]; Type I hyposmia, after treatment with 400 mg theophylline): 40%
- decrease in TNFα in nasal mucus ([3]; Type II hyposmia, after treatment with 600 mg theophylline): 11%
- change in TNFα levels in nasal mucus ([3]; each hyposmia patient group, with each increased dose of theophylline): decreased in each patient group
- TNF∝ in nasal mucus ([3]; patients with hyposmia (24), Theophylline treatment (mg/l) 200): 20.0 ± 2.8 pg/mL
- TNF∝ in nasal mucus ([3]; patients with hyposmia (24), Theophylline treatment (mg/l) 400): 12.1 ± 2.1^d pg/ml
- TNF∝ in nasal mucus ([3]; patients with hyposmia (24), Theophylline treatment (mg/l) 600): 7.4 ± 1.8^a pg/ml
- change in TNFα in nasal mucus [3, 9]: significant dose-response decrease
- Nasal mucus TRAIL ([4]; theophylline 200 mg): 855 µg/mL
- Nasal mucus TRAIL ([4]; theophylline 400 mg): 791 µg/mL
- Nasal mucus TRAIL ([4]; theophylline 600 mg): 247 µg/mL
- change in TRAIL in nasal mucus [4, 7]: dose-dependent decrease in TRAIL
- TNFR 2 in nasal mucus [5, 10]: 3,100 ± 1,184
- TNFR 2 in nasal mucus [5, 11]: 1,491 ± 1,102
- TNFR 2 in nasal mucus [5, 12]: 1,378 ± 480
- TNFR 2 in nasal mucus [5, 13]: 1,014 ± 272
- TNFR 2 in nasal mucus [5, 14]: 553 ± 158
- TNFR 2 in nasal mucus [5, 15]: 436 ± 443
- change in TNFR 2 levels in nasal mucus ([5]; dose dependent increase of theophylline treatment): decreased
- decrease in TNFR 2 levels in nasal mucus ([5]; patients with Type I and Type II hyposmia, 600 mg theophylline): ~50%
- TNFR 2 in nasal mucus ([5]; patients with hyposmia (18), Theophylline treatment (mg orally daily) 200): 1,952 ± 339 pg/ml
- TNFR 2 in nasal mucus ([5]; patients with hyposmia (18), Theophylline treatment (mg orally daily) 400): 949 ± 180^c pg/ml
- TNFR 2 in nasal mucus ([5]; patients with hyposmia (18), Theophylline treatment (mg orally daily) 600): 916 ± 344 pg/mL
- change in soluble TNF receptor 2 in nasal mucus [5, 9]: significant dose-response decrease
- TNFR 1 in nasal mucus [6, 10]: 6,521 ± 1,304^c
- TNFR 1 in nasal mucus ([6]; HYPOSMIA TYPE I (7), theophylline 400 mg orally daily): 1,498
- TNFR 1 in nasal mucus [6, 11]: 1,832 ± 704^a
- TNFR 1 in nasal mucus [6, 12]: 1,462 ± 371
- TNFR 1 in nasal mucus [6, 13]: 1,087 ± 335
- TNFR 1 in nasal mucus [6, 14]: 862 ± 335
- TNFR 1 in nasal mucus [6, 15]: 585 ± 335
- change in TNFR 1 levels in nasal mucus ([6]; Type I hyposmia, as dose of drug increased): decreased
- TNFR 1 in nasal mucus ([6]; patients with hyposmia (19), Theophylline treatment 200): 3,148 ± 663 pg/ml
- TNFR 1 in nasal mucus ([6]; patients with hyposmia (19), Theophylline treatment 400): 1,146 ± 220^b pg/ml
- TNFR 1 in nasal mucus ([6]; patients with hyposmia (19), Theophylline treatment 600): 1,220 ± 286^ab pg/ml
- change in soluble TNF receptor 1 in nasal mucus [6, 9]: significant dose-response decrease
